Literature values, collected in article PMC9217999 (Targeted Oncology, 2022).

Tests used:
Details in all cases: cited from earlier work
[1] = test system: NF1-associated PN
[2] = test system: NF1 and inoperable PN
[3] = test system: recurrent/refractory LGG

Row | SMILES | Responses ongoing ([1]; 10/12 responses) | Patients with PR ([1]; 12/26 patients, preliminary data) | Confirmed PR rate [2] | PR rate [2] | Stable disease [2] | PR (bidimensional measurements on T2/FLAIR) ([3]; 5/25, four with BRAF aberrations) | 2-year PFS [3]
1 | CC(=O)Nc1cccc(-n2c(=O)n(C3CC3)c(=O)c3c(Nc4ccc(I)cc4F)n(C)c(=O)c(C)c32)c1 [trametinib] | 83% | 46% |  |  |  |  | 
2 | Cn1cnc2c(F)c(Nc3ccc(Br)cc3Cl)c(C(=O)NOCCO)cc21 [selumetinib] |  |  | 68% | 74% | 12% | 20% | 69%
